Measured values as given in US20160257651A1, “NOVEL COMPOUND WITH ANTIBACTERIAL ACTIVITY” (priority 2013, published 2016).
≈ marks a conversion by molar mass, not a printed value. Like-named read-outs stand apart in the source and are kept apart here.

Experiments:
E. coli strain 1708 = experiment: Antibacterial activity against Escherichia coli
Excerpt: (§9) The numerical values in the tables indicate MIC (mg/L), Res means resistant bacterium, and Sus means susceptible bacterium.
(§10) Antibacterial activities against Escherichia coli of the compounds shown Table 19 were examined by the following method.
(§11) After completion of the culture, the cells were suspended in fresh TBS to prepare a cell suspension showing an absorbance of 0.3 at 578 nm.

S. aureus Mu50 = experiment: microbe, parasite or virus in culture; assay type: cell-based, Staphylococcus aureus; settings: for MIC: S. aureus Mu50, quinolone-resistant MRSA, ParC S80F, GyrA S84L; for MIC ratio (Mu50 MIC/FDA209P MIC): MIC for S. aureus Mu50 / MIC for S. aureus FDA209P
Method: (§1) Then, the cell suspension was diluted 500 times with CAMHB mentioned above.

[1] = tested on: S. aureus FDA209P (ATCC 6538P); experiment: microbe, parasite or virus in culture; assay type: cell-based, Staphylococcus aureus; settings: quinolone-susceptible MSSA, ParC 80S, GyrA 84S
Method: as §1

E. coli strain 1709 = experiment: Antibacterial activity against Escherichia coli
Excerpt: as §9, §10, §11

S. pneumoniae BCLSP37 = experiment: MIC against pneumococcus, CAMHB with 5 mass % LHB; assay type: cell-based, Streptococcus pneumoniae; settings: Streptococcus pneumoniae, BCLSP37, S. pneumoniae BCLSP37, PSSP, quinolone-resistant; ParC 79Phe, GyrA 85Lys; read-out: MIC
Method: (§2) The S. pneumoniae strains used for this test belong to any one of the categories of penicillin-susceptible pneumococcus (penicillin-susceptible Streptococcus pneumoniae, PSSP), penicillin-intermediate pneumococcus (penicillin-intermediate Streptococcus pneumoniae, PISP), and penicillin-resistant pneumococcus (penicillin-resistant Streptococcus pneumoniae, PRSP).
(§3) The lysed horse blood was prepared by adding sterilized water to horse sterile defibered blood (produced by Nippon Bio-Supp. Center) at a ratio of 1:1, subjecting the mixture to freezing and thawing 5 times, then centrifuging the mixture twice at 10,000 rpm for 20 minutes, and filtering the supernatant through a filter.
(§4) The S. pneumoniae strains mentioned in Table 11 were each cultured overnight at 37° C. on a blood agar medium as stationary culture. The blood agar medium was prepared by adding 5 mass % ovine sterile defibered blood (produced by Nippon Bio-Supp. Center) to a heart infusion agar medium (produced by EIKEN CHEMICAL). Each S. pneumoniae strain cultured overnight at 37° C. as stationary culture was further subcultured overnight at 37° C. on fresh blood agar medium as stationary culture. After completion of the culture, cells of each pneumococcus strain were collected with a swab, and suspended in physiological saline, and the suspension was adjusted with physiological saline to show absorbance of 0.08 to 0.13 at 625 nm as measured with an absorbance meter (produced by Amersham), and further diluted 200 times with CAMHB containing 5 mass % LHB.
(§5) In Table 11, the amino acid substitution mutations in QRDR of the strains are underlined.

S. pneumoniae KBSP11 = experiment: MIC against pneumococcus, CAMHB with 5 mass % LHB; assay type: cell-based, Streptococcus pneumoniae; settings: Streptococcus pneumoniae, PRSP
Method: as §2, §3, §4, §5

E. faecalis 36-15722 = experiment: MIC against Enterococcus bacteria; assay type: cell-based, Enterococcus faecalis; settings: Enterococcus faecalis, 3615722; E. faecalis 36-15722, quinolone-resistant; ParC 80Ile, GyrA 84Ile; read-out: MIC
Method: (§6) Antibacterial activities of the compound J-131CP against Enterococcus bacteria (Enterococcus faecium and Enterococcus faecalis) were examined by the following methods.
(§7) The compound J-131CP and quinolones were prepared in the same manner as that of Test Example 1-1.
(§8) Cell suspensions were prepared in the same manner as that of Test Example 1-1 described in the section of measurement of MIC in Test Example 1-1, except that the Enterococcus bacterium strains mentioned in Table 8 were used instead of Staphylococcus aureus, and MICs of the compound J-131CP and quinolones as control were determined for the strains in the same manner as that of Test Example 1-1 described in the section of measurement of MIC in Test Example 1-1. In Table 8, the amino acid substitution mutations in QRDR of the strains are underlined.

E. faecalis NCTC12201 = experiment: MIC against Enterococcus bacteria; assay type: cell-based; settings: Enterococcus faecalis, NCTC 12201 / VRE, quinolone-susceptible
Method: as §6, §7, §8

[2] = Staphylococcus aureus, ATCC 6538P / FDA209P / MSSA, read-out: MIC

| Molecule | MIC (E. coli strain 1708) | MIC (S. aureus Mu50; Staphylococcus aureus, MRSA) | MIC [1, 2] | MIC (E. coli strain 1709) | MIC ratio (Mu50 MIC/FDA209P MIC) (S. aureus Mu50) | MIC (S. aureus Mu50) | MIC [1] | other results |
| --- | --- | --- | --- | --- | --- | --- | --- | --- |
| O=c1cc(O)c2ccc(-c3ccc(O)cc3)c(OC(F)F)c2n1C1CC1 [J-158] | 128 µg/mL (≈ 356 µM) | 4 µg/mL (≈ 11.1 µM) | 8 µg/mL (≈ 22.3 µM) | 128 µg/mL (≈ 356 µM) |  |  |  |  |
| O=c1cc(CO)c2cc(F)c(N3CCC(O)CC3)cc2n1C1CC1 [J-147, 1-cyclopropyl-6-fluoro-4-(hydroxymethyl)-7-(4-hydroxypiperidin-1-yl)quinolin-2(1H)-one] |  | 16 µg/mL (≈ 48.1 µM) | 32 µg/mL (≈ 96.3 µM) |  | 0.5 |  |  |  |
| NC(=O)c1cc(=O)n(C2CC2)c2cc(-c3ccc(O)cc3)c(F)cc12 [J-173] | 128 µg/mL (≈ 378 µM) | 2 µg/mL (≈ 5.91 µM) | 8 µg/mL (≈ 23.6 µM) | 128 µg/mL (≈ 378 µM) |  |  |  | MIC (S. pneumoniae BCLSP37): 8 µg/mL (≈ 23.6 µM); MIC (S. pneumoniae KBSP11): 8 µg/mL (≈ 23.6 µM) |
| Cc1cc(=O)n(C)c2cc(-c3ccc(O)cc3)ccc12 [J-121Me] |  | 4 µg/mL (≈ 15.1 µM) | 128 µg/mL (≈ 482 µM) |  | 0.0313 |  |  |  |
| Cn1c(=O)cc(CO)c2cc(F)c(-c3ccc(O)cc3)cc21 [J-131, 6-fluoro-4-(hydroxymethyl)-7-(4-hydroxyphenyl)-1-methylhydroquinolin-2-one] |  |  |  |  | 0.25 | 4 µg/mL (≈ 13.4 µM) | 16 µg/mL (≈ 53.5 µM) |  |
| Nc1ccc(-c2cc3c(cc2F)c(COC(=O)CCC(=O)O)cc(=O)n3C2CC2)cc1 [J-136, 3-({[7-(4-aminophenyl)-1-cyclopropyl-6-fluoro-2-oxo-4-hydroquinolyl]methyl}oxycarbonyl)propanoic acid] |  |  |  |  | 0.25 | 8 µg/mL (≈ 18.8 µM) | 32 µg/mL (≈ 75.4 µM) |  |
| COCc1cc(=O)n(C2CC2)c2cc(-c3ccc(O)cc3)c(F)cc12 [J-175] | 128 µg/mL (≈ 377 µM) | 0.5 µg/mL (≈ 1.47 µM) | 1 µg/mL (≈ 2.95 µM) | 128 µg/mL (≈ 377 µM) |  |  |  | MIC (S. pneumoniae BCLSP37): 8 µg/mL (≈ 23.6 µM); MIC (S. pneumoniae KBSP11): 32 µg/mL (≈ 94.3 µM) |
| Cn1c(=O)cc(CO)c2ccc3c(c21)OCO3 [J-103, 6-(hydroxymethyl)-9-methyl-9-hydro-2H-1,3-dioxoleno[4,5-h]quinolin-8-one] |  |  |  |  | 0.125 | 16 µg/mL (≈ 68.6 µM) | 128 µg/mL (≈ 549 µM) |  |
| Cc1cc(=O)n2c3c(c(-c4ccc(O)cc4)c(F)cc13)OCC2C (stereo not drawn) [J-149d] | 128 µg/mL (≈ 393 µM) | 0.5 µg/mL (≈ 1.54 µM) | 1 µg/mL (≈ 3.07 µM) | 128 µg/mL (≈ 393 µM) |  |  |  |  |
| O=C(O)c1c(CO)c2cc(F)c(-c3ccc(O)cc3)cc2n(C2CC2)c1=O [J-169] | 128 µg/mL (≈ 347 µM) | 8 µg/mL (≈ 21.7 µM) | 8 µg/mL (≈ 21.7 µM) | 16 µg/mL (≈ 43.3 µM) |  |  |  |  |
| O=c1cc(CO)c2ccc(-c3ccc(O)cc3)c3c2n1CO3 [J-2.1.2, 6-(hydroxymethyl)-9-(4-hydroxyphenyl)oxazolo[5,4,3-ij]quinolin-4(2H)-one] |  | 16 µg/mL (≈ 54.2 µM) | 128 µg/mL (≈ 433 µM) |  | 0.125 |  |  |  |
| CC(=O)N1COc2c1ccc1c(CO)cc(=O)n(C)c21 [J-125a, 3-acetyl-6-(hydroxymethyl)-9-methyl-8-oxo 9-hydro-2H-1,3-oxazolino[4,5-h]quinoline] |  |  |  |  | 0.125 | 16 µg/mL (≈ 58.3 µM) | 128 µg/mL (≈ 467 µM) |  |
| 9-(hydroxyphenyl)-6-methyloxazolo[5,4,3-ij]quinolin-4(2H)-one [J-2.1.1] |  |  |  |  | 0.5 | 16 µg/mL | 32 µg/mL |  |
| CCn1c(=O)cc(CO)c2cc(F)c(-c3ccc(O)cc3)cc21 [J-131E, 1-ethyl-6-fluoro-4-(hydroxymethyl)-7-(4-hydroxyphenyl)hydroquinolin-2-one] |  |  |  |  | 0.25 | 0.5 µg/mL (≈ 1.6 µM) | 2 µg/mL (≈ 6.38 µM) |  |
| O=c1cc(CO)c2ccc(-c3ccc(O)cc3)cc2n1C1CC1 [J-121Cp, 1-cyclopropyl-4-hydroxymethyl-7-(4-hydroxy-phenyl)-1H-quinolin-2-one] |  | 0.5 µg/mL (≈ 1.63 µM) | 1 µg/mL (≈ 3.25 µM) |  | 0.5 |  |  |  |
| Nc1ccc(-c2cc3c(cc2F)c(COC(=O)CC(=O)O)cc(=O)n3C2CC2)cc1 [J-135, 2-({[7-(4-aminophenyl)-1-cyclopropyl-6-fluoro-2-oxo-4-hydroquinolyl]methyl}oxycarbonyl)acetic acid] |  |  |  |  | 1 | 8 µg/mL (≈ 19.5 µM) | 8 µg/mL (≈ 19.5 µM) |  |
| Nc1c(CO)c2cc(F)c(-c3ccc(O)cc3)cc2n(C2CC2)c1=O [J-179] | 128 µg/mL (≈ 376 µM) | 1 µg/mL (≈ 2.94 µM) | 0.5 µg/mL (≈ 1.47 µM) | 128 µg/mL (≈ 376 µM) |  |  |  |  |
| COc1c(-c2ccc(O)cc2)ccc2c(CO)cc(=O)n(C3CC3)c12 [J-157, 1-cyclopropyl-8-methoxyl-4-(hydroxymethyl)-7-(4-hydroxyphenyl)hydroquinolin-2-one] |  |  |  |  | 0.5 | 2 µg/mL (≈ 5.93 µM) | 4 µg/mL (≈ 11.9 µM) |  |
| CC(O)c1cc(=O)n(C2CC2)c2cc(-c3ccc4c(c3)CNC4C)c(F)cc12 (stereo not drawn) [J-144M] | 128 µg/mL (≈ 338 µM) | 4 µg/mL (≈ 10.6 µM) | 0.5 µg/mL (≈ 1.32 µM) | 4 µg/mL (≈ 10.6 µM) |  |  |  | MIC (E. faecalis 36-15722): 2 µg/mL (≈ 5.28 µM); MIC (E. faecalis NCTC12201): 1 µg/mL (≈ 2.64 µM) |
| CCc1cc(=O)n(C2CC2)c2cc(-c3ccc(O)cc3)c(F)cc12 [J-150, 1-cyclopropyl-4-ethyl-6-fluoro-7-(4-hydroxyphenyl)hydroquinolin-2-one] |  |  |  |  | 0.0625 | 0.25 µg/mL (≈ 0.773 µM) | 4 µg/mL (≈ 12.4 µM) |  |
| C[C@H]1COc2c(-c3ccc(O)cc3)c(F)cc3c(CO)cc(=O)n1c23 [J-149A] | 128 µg/mL (≈ 375 µM) | 0.5 µg/mL (≈ 1.46 µM) | 0.25 µg/mL (≈ 0.732 µM) | 16 µg/mL (≈ 46.9 µM) |  |  |  |  |
| Cn1c(=O)cc(CO)c2cc(F)c(-c3ccc(N)cc3)cc21 [J-132, 7-(4-aminophenyl)-6-fluoro-4-(hydroxymethyl)-1-methylhydroquinolin-2-one] |  |  |  |  | 0.0625 | 8 µg/mL (≈ 26.8 µM) | 128 µg/mL (≈ 429 µM) |  |
| CN1CCN(c2cc3c(cc2F)c(CO)cc(=O)n3C2CC2)CC1 [J-146, 1-cyclopropyl-6-fluoro-4-(hydroxymethyl)-7-(4-methylpiperazin-1-yl)quinolin-2(1H)-one] |  | 16 µg/mL (≈ 48.3 µM) | 16 µg/mL (≈ 48.3 µM) |  | 1 |  |  |  |
| CNc1ncc(-c2ccc3c(CO)cc(=O)n(C4CC4)c3c2)cc1C [J-165] | 128 µg/mL (≈ 382 µM) | 8 µg/mL (≈ 23.9 µM) | 4 µg/mL (≈ 11.9 µM) | 128 µg/mL (≈ 382 µM) |  |  |  |  |
| O=c1cc(CO)c2cc(Cl)c(-c3ccc(O)cc3)cc2n1C1CC1 [J-152] | 128 µg/mL (≈ 374 µM) | 0.25 µg/mL (≈ 0.731 µM) | 1 µg/mL (≈ 2.93 µM) | 128 µg/mL (≈ 374 µM) |  |  |  |  |
| CC(=O)OCc1cc(=O)n(C2CC2)c2cc(-c3ccc(O)cc3)c(F)cc12 [J-131ACp, [1-cyclopropyl-6-fluoro-7-(4-hydroxyphenyl)-2-oxo-4-hydroquinolyl]methyl.acetate] | 128 µg/mL | 4 µg/mL | 64 µg/mL | 128 µg/mL | 0.0625 |  |  |  |
| Cc1cc2c(CO)cc(=O)n(C3CC3)c2cc1-c1ccc(O)cc1 [J-140, 1-cyclopropyl-4-(hydroxymethyl)-7-(4-hydroxyphenyl)-6-methylhydroquinolin-2-one] |  |  |  |  | 0.25 | 0.25 µg/mL (≈ 0.778 µM) | 1 µg/mL (≈ 3.11 µM) |  |
| CCC(=O)OCc1cc(=O)n(C2CC2)c2cc(-c3ccc(N)cc3)c(F)cc12 [J-138, [7-(4-aminophenyl)-1-cyclopropyl-6-fluoro-2-oxo-4-hydroquinolyl]methyl propanoate] |  |  |  |  | 1 | 2 µg/mL (≈ 5.26 µM) | 2 µg/mL (≈ 5.26 µM) |  |
